Assay results taken from ChEMBL document CHEMBL6134891, “Thienopyrimidinone Derivatives as a GluN2B/C/D Biased, Positive Allosteric Modulator of the N-Methyl-d-Aspartate Receptor” (J Med Chem, 2025).
≈ marks a conversion by molar mass, not a printed value.

Tests used:
[1] = molecular target: T1, Glutamate receptor ionotropic, NMDA 2D (Rattus norvegicus, UniProt P35439+Q62645)
Description: (§1) Positive allosteric modulation of recombinant rat GluN2D receptor expressed in Xenopus oocytes assessed as glutamate/glycine-induced potentiation of current by 2EVC method

[2] = molecular target: T2, Glutamate receptor ionotropic, NMDA 2B (Rattus norvegicus, UniProt P35439+Q00960)
Description: (§2) Positive allosteric modulation of recombinant rat GluN2B receptor expressed in Xenopus oocytes assessed as glutamate/glycine-induced potentiation of current by 2EVC method

[3] = molecular target: T3, Glutamate receptor ionotropic, NMDA 2C (Rattus norvegicus, UniProt P35439+Q00961)
T3 sequence (Q00961 whole entry, one chain of several): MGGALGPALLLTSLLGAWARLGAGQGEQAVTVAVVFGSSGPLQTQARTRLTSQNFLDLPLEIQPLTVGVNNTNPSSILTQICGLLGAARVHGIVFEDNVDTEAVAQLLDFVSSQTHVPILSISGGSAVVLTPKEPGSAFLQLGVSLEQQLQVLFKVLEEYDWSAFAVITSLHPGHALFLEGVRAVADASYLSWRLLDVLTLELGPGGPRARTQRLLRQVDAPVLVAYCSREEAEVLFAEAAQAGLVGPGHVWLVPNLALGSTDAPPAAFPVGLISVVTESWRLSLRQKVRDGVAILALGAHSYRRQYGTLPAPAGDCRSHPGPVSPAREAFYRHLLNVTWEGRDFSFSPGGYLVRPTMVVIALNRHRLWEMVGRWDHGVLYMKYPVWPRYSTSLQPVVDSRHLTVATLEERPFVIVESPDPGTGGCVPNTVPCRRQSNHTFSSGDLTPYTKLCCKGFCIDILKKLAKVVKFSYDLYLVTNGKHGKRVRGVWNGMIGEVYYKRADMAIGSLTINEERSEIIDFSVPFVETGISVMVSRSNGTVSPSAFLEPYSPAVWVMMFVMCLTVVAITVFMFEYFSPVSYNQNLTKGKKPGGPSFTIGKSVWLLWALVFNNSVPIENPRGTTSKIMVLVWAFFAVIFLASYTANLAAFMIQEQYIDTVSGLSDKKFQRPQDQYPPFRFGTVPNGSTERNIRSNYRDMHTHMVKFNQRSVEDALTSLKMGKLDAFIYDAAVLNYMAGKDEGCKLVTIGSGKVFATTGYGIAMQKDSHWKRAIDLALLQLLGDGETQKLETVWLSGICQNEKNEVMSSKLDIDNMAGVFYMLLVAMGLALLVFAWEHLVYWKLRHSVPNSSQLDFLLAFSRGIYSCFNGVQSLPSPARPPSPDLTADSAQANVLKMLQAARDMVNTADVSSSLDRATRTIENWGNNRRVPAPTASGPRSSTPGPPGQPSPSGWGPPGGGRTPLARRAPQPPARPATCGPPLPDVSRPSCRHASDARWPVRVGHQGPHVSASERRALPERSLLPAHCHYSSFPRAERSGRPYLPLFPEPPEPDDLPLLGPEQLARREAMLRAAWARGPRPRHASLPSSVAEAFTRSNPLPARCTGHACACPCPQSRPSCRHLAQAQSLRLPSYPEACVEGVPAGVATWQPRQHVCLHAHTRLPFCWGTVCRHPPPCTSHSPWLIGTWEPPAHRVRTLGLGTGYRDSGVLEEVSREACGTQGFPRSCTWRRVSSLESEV
Description: (§3) Positive allosteric modulation of recombinant rat GluN2C receptor expressed in Xenopus oocytes assessed as glutamate/glycine-induced potentiation of current by 2EVC method

[4] = molecular target: Glutamate receptor ionotropic, NMDA 2B (Rattus norvegicus, UniProt Q00960); conditions: oocyte
Glutamate receptor ionotropic, NMDA 2B (Rattus norvegicus, UniProt Q00960), sequence (Q00960 whole entry): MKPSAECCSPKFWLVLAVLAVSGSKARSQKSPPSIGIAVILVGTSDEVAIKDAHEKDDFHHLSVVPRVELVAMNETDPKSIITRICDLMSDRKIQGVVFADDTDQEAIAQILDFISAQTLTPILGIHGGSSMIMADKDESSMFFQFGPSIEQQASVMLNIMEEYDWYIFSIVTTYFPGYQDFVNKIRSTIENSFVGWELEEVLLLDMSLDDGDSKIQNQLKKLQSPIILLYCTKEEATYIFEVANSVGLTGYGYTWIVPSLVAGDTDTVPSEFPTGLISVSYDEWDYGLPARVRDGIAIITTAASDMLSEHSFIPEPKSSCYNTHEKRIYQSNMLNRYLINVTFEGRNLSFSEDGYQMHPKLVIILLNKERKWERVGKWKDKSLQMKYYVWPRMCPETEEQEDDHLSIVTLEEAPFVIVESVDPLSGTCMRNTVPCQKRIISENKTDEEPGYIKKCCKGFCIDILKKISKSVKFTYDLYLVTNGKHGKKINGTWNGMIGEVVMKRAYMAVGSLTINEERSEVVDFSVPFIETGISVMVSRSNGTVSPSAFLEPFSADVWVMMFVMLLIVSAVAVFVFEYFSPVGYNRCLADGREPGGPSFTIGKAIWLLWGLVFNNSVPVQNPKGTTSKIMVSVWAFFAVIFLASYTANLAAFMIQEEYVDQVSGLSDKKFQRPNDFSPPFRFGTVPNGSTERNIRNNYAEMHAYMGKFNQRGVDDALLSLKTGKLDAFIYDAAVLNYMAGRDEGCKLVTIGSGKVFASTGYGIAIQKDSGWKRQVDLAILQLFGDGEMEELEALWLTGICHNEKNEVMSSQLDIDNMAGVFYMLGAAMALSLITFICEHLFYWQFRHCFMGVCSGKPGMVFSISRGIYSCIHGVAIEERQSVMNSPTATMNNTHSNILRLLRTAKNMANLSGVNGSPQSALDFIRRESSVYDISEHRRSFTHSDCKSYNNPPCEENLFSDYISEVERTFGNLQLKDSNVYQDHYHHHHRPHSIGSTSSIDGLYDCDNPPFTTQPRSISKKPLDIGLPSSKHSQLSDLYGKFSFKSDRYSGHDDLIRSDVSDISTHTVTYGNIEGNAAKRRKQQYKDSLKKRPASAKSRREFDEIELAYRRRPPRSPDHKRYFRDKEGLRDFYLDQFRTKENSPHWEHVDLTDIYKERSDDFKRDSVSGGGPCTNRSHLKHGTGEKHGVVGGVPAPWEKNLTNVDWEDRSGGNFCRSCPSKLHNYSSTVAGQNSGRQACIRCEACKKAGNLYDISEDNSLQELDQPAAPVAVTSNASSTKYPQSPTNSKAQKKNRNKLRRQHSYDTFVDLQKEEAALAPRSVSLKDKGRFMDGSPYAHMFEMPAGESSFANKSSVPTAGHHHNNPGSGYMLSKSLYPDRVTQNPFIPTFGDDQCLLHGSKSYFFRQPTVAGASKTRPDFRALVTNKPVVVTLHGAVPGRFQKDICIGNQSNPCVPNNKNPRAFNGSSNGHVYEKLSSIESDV
Description: as §2

[5] = molecular target: T4, Glutamate receptor ionotropic, NMDA 2D (Homo sapiens, UniProt O15399+Q05586); assay: Positive allosteric modulation of GluN2D receptor (unknown origin)
[6] = molecular target: T5, Glutamate receptor ionotropic, NMDA 2C (Homo sapiens, UniProt Q05586+Q14957); assay: Positive allosteric modulation of GluN2C receptor (unknown origin)
[7] = molecular target: T6, Glutamate receptor ionotropic, NMDA 2A (Homo sapiens, UniProt Q05586+Q12879); assay: Positive allosteric modulation of GluN2A receptor (unknown origin)
[8] = Stability in rat plasma assessed as half life
[9] = molecular target: T3, Glutamate receptor ionotropic, NMDA 2C; remark: listed apart in the source
Description: Positive allosteric modulation of recombinant rat GluN2C receptor expressed in Xenopus laevis stage VI oocytes assessed as glutamate/glycine-induced potentiation of current by 2EVC method

[10] = Stability in human plasma assessed as half life
[11] = Stability in mouse plasma assessed as half life
[12] = molecular target: T1, Glutamate receptor ionotropic, NMDA 2D; remark: listed apart in the source
Description: Positive allosteric modulation of recombinant rat GluN2D receptor expressed in Xenopus laevis stage VI oocytes assessed as glutamate/glycine-induced potentiation of current by 2EVC method

[13] = Kinetic solubility of compound in PBS at pH 7.3 by nephelometry
[14] = molecular target: T2, Glutamate receptor ionotropic, NMDA 2B; remark: listed apart in the source
Description: Positive allosteric modulation of recombinant rat GluN2B receptor expressed in Xenopus laevis stage VI oocytes assessed as glutamate/glycine-induced potentiation of current by 2EVC method

[15] = in vitro; conditions: human, liver microsomes
Description: Intrinsic clearance in human liver microsomes at 3 uM preincubated for 5 mins followed by NADPH addition measured up to 30 mins by LC-MS/MS analysis

[16] = Efflux ratio of apparent permeability in MDCK-MDR1 cells; conditions: dog
[17] = Apparent permeability in MDCK-MDR1 cells; conditions: dog
[18] = molecular target: T4, Glutamate receptor ionotropic, NMDA 2D; assay: Positive allosteric modulation of GluN2D receptor (unknown origin) expressed in Doxycycline-inducible HEK293 cells by calcium influx assay
[19] = molecular target: T6, Glutamate receptor ionotropic, NMDA 2A; assay: Positive allosteric modulation of GluN2A receptor (unknown origin) expressed in Doxycycline-inducible HEK293 cells by calcium influx assay
[20] = molecular target: T5, Glutamate receptor ionotropic, NMDA 2C; assay: Positive allosteric modulation of GluN2C receptor (unknown origin) expressed in Doxycycline-inducible HEK293 cells by calcium influx assay
[21] = molecular target: T7, Glutamate receptor ionotropic, NMDA 2B (Homo sapiens, UniProt Q05586+Q13224); assay: Positive allosteric modulation of GluN2B receptor (unknown origin) expressed in Doxycycline-inducible HEK293 cells by calcium influx assay
[22] = molecular target: Translocator protein (Homo sapiens, UniProt P30536); assay: Inhibition of peripheral benzodiazepine receptor (unknown origin) by radioligand binding assay
Translocator protein, sequence (P30536 whole entry): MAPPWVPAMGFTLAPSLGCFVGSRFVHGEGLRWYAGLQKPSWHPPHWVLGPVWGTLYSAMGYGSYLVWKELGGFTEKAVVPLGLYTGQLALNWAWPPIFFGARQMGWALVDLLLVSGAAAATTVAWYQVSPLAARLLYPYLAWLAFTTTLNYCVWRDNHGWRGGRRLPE

[23] = molecular target: Glutamate NMDA receptor; assay: Positive allosteric modulation of NMDAR in rat hippocampal neurons by Whole-cell and excised-patch recording method; conditions: hippocampal neuron
[24] = molecular target: Glutamate receptor ionotropic, NMDA 2D (Rattus norvegicus, UniProt Q62645); conditions: oocyte
Description: as §1

[25] = molecular target: Glutamate receptor ionotropic, NMDA 2C (Rattus norvegicus, UniProt Q00961); conditions: oocyte
Glutamate receptor ionotropic, NMDA 2C (Rattus norvegicus, UniProt Q00961), sequence (Q00961 whole entry): as the sequence (Q00961 whole entry, one chain of several) above
Description: as §3

[26] = molecular target: T5, Glutamate receptor ionotropic, NMDA 2C; assay: Positive allosteric modulation of human GluN2C receptor expressed in HEK293 cells by Whole-cell patch-clamp method
[27] = molecular target: T7, Glutamate receptor ionotropic, NMDA 2B; assay: Positive allosteric modulation of human GluN2B receptor expressed in HEK293 cells by Whole-cell patch-clamp method

T2 sequence (Q00960 whole entry, one chain of several): as the sequence (Q00960 whole entry) above

Row | EC50 [1] [µM] | EC50 [2] [nM] | EC50 [3] [µM] | SMILES | also measured
1 | 25 | 15000 | 12 | Cc1sc2ncn(CC(=O)N3CC[C@H](F)C3)c(=O)c2c1-c1cccc(Br)c1 | –
2 | 4.7 | 1800 | 3.14 | CCc1sc2ncn(CC(=O)N3CC(C)(F)C3)c(=O)c2c1-c1ccc(F)c(Br)c1 | –
3 | 13 | 2800 | 13 | Cc1sc2ncn(CC(=O)N3CC(C)(F)C3)c(=O)c2c1-c1ccc2c(c1)OC(F)(F)O2 | –
4 | 13 | 2900 | 9.1 | Cc1sc2ncn(CC(=O)N3CCC(C)(F)C3)c(=O)c2c1-c1cccc(Br)c1 (stereo not given) | –
5 | 7.4 | 1600 | 9.4 | Cc1sc2ncn(CC(=O)N3CC(C)(F)C3)c(=O)c2c1-c1cc(F)cc(Cl)c1 | –
6 | 11 | – | 13 | CCCC1(F)CN(C(=O)Cn2cnc3sc(C)c(-c4cccc(Br)c4)c3c2=O)C1 | EC50 [4]: Not_active
7 | – | – | – | C[C@H](CC[C@](C)(O)C(F)(F)F)[C@H]1CC[C@H]2[C@@H]3CC=C4C[C@@](C)(O)CC[C@]4(C)[C@H]3CC[C@]12C [DALZANEMDOR] | EC50 [5]: 79 nM; EC50 [6]: 79 nM; EC50 [7]: 79 nM
8 | 5.4 | 2000 | 3.7 | Cc1sc2ncn(CC(=O)N3CC(F)(C4CC4)C3)c(=O)c2c1-c1cccc(Br)c1 | –
9 | – | – | – | Cc1sc2ncn(CC(=O)N3CCCC3)c(=O)c2c1-c1cccc(Br)c1 | half-life [8]: > 240 min; EC50 [9]: 12 µM; half-life [10]: > 240 min; half-life [11]: > 240 min; EC50 [12]: 18 µM; solubility kinetic [13]: > 100 µM; EC50 [14]: 9.9 µM; microsomal CLint at 0.5 h, 3 µM [15]: 50 µL/min/mg
10 | 11.7 | 2600 | 6.7 | Cc1sc2ncn(CC(=O)N3CCC(F)(F)C3)c(=O)c2c1-c1cccc(Br)c1 | –
11 | 0.89 | 360 | 0.94 | CC1(F)CN(C(=O)Cn2cnc3sc(C#N)c(-c4ccc(F)c(Br)c4)c3c2=O)C1 | half-life [8]: > 240 min; efflux ratio [16]: 4.66; half-life [10]: > 240 min; half-life [11]: > 240 min; Papp [17]: 9.36 ×10⁻⁶ cm/s; solubility kinetic [13]: 45 µM (≈ 21.6 µg/mL); microsomal CLint at 0.5 h, 3 µM [15]: 16 µL/min/mg
12 | – | – | – | CCCc1nc2[nH]c(C)c(NS(=O)(=O)c3ccc(C4CCCCC4)cc3)c(=O)n2n1 | EC50 [18]: 3 µM; EC50 [19]: 3 µM; EC50 [20]: 3 µM; EC50 [21]: 3 µM
13 | 13 | 2500 | 6.6 | Cc1sc2ncn(CC(=O)N3CCC(C)C3)c(=O)c2c1-c1cccc(Br)c1 (stereo not given) | –
14 | 4.9 | 1200 | 2.2 | Cc1sc2ncn(CC(=O)N3CC(C)(F)C3)c(=O)c2c1-c1cccc(Cl)c1 | –
15 | 1.1 | 570 | 0.82 | C#Cc1sc2ncn(CC(=O)N3CC(C)(F)C3)c(=O)c2c1-c1ccc(F)c(Br)c1 | Ki [22]: 550 nM
16 | 4.8 | 1300 | 4.2 | Cc1sc2ncn(CC(=O)N3CC(C)(F)C3)c(=O)c2c1-c1ccc(F)c(C#N)c1 | –
17 | – | 23000 | 20 | Cc1sc2ncn(CC(=O)N3CCC3)c(=O)c2c1-c1cccc(Br)c1 | –
18 | 2.8 | 780 | 2 | Cc1sc2ncn(CC(=O)N3CC(C)(F)C3)c(=O)c2c1-c1cccc(Br)c1 | –
19 | – | – | – | CC(C)[C@@H](O)CC[C@@H](C)[C@H]1CC[C@H]2[C@@H]3CC=C4C[C@@H](O)CC[C@]4(C)[C@H]3CC[C@]12C | EC50 [23]: 1200 nM
20 | 3.6 | 970 | 2.4 | CCC1(F)CN(C(=O)Cn2cnc3sc(C)c(-c4cccc(Br)c4)c3c2=O)C1 | –
21 | 1 | 410 | 0.86 | Cc1sc2ncn(CC(=O)N3CC(C)(F)C3)c(=O)c2c1-c1ccc(Cl)c(Cl)c1 | –

Row | EC50 [1] [µM] | EC50 [2] [nM] | EC50 [3] [µM] | SMILES | also measured
22 | – | – | – | C#CC1(F)CN(C(=O)Cn2cnc3sc(C)c(-c4cccc(Br)c4)c3c2=O)C1 | EC50 [4]: Not_active; EC50 [24]: Not_active; EC50 [25]: Not_active
23 | 6.9 | 2000 | 5.3 | Cc1sc2ncn(CC(=O)N3CC(C)(F)C3)c(=O)c2c1-c1cccc(Cl)c1F | –
24 | 2.4 | 600 | 1.6 | Cc1sc2ncn(CC(=O)N3CC(C)(F)C3)c(=O)c2c1-c1ccc(F)c(C(F)(F)F)c1 | –
25 | 6.1 | 2300 | 3.2 | CC1(F)CN(C(=O)Cn2cnc3sc(C(F)(F)F)c(-c4ccc(F)c(Br)c4)c3c2=O)C1 | –
26 | – | – | – | C[C@@H](O)[C@@H](C(N)=O)N1C[C@@]2(CCCN2C(=O)OC(C)(C)C)C1=O [ZELQUISTINEL] | EC50 [26]: 9.7 µM; EC50 [27]: 9.7 µM
27 | 5.8 | 2000 | 5.2 | Cc1sc2ncn(CC(=O)N3CC(C)(F)C3)c(=O)c2c1-c1ccc(F)c(OC(C)C)c1 | –
28 | 4.5 | 1500 | 3.9 | Cc1sc2ncn(CC(=O)N3CC(C)(F)C3)c(=O)c2c1-c1cc(Cl)ccc1F | –
29 | – | 7600 | 12 | Cc1sc2ncn(CC(=O)N3CC(C)C3)c(=O)c2c1-c1cccc(Br)c1 | –
30 | 2.1 | 740 | 0.87 | CC1(F)CN(C(=O)Cn2cnc3scc(-c4ccc(F)c(Br)c4)c3c2=O)C1 | half-life [8]: > 240 min; efflux ratio [16]: 2.04; half-life [10]: > 240 min; half-life [11]: > 240 min; Papp [17]: 16.6 ×10⁻⁶ cm/s; solubility kinetic [13]: 33 µM (≈ 15 µg/mL); microsomal CLint at 0.5 h, 3 µM [15]: 14 µL/min/mg
31 | 1.1 | 330 | 0.63 | Cc1sc2ncn(CC(=O)N3CC(C)(F)C3)c(=O)c2c1-c1ccc(F)c(Br)c1 | half-life [8]: > 240 min; efflux ratio [16]: 1.98; half-life [10]: > 240 min; half-life [11]: > 240 min; Papp [17]: 19.6 ×10⁻⁶ cm/s; solubility kinetic [13]: 34 µM (≈ 15.9 µg/mL); microsomal CLint at 0.5 h, 3 µM [15]: 29 µL/min/mg
32 | 3.8 | 1100 | 2.2 | Cc1sc2ncn(CC(=O)N3CC(C)(F)C3)c(=O)c2c1-c1cccc(C(F)(F)F)c1 | –
33 | 2.1 | 700 | 1.2 | Cc1sc2ncn(CC(=O)N3CC(C)(F)C3)c(=O)c2c1-c1ccc(F)c(Cl)c1 | –
34 | 5.6 | 1700 | 4.5 | Cc1sc2ncn(CC(=O)N3CC(C)(F)C3)c(=O)c2c1-c1ccc(Cl)c(F)c1 | –
35 | – | 14000 | – | Cc1sc2ncn(CC(=O)N3CC[C@@H](F)C3)c(=O)c2c1-c1cccc(Br)c1 | –
36 | – | – | – | Cc1sc2ncn(CC(=O)N3CC[C@@H](O)C3)c(=O)c2c1-c1cccc(Br)c1 | EC50 [4]: Not_active; EC50 [24]: Not_active; EC50 [25]: Not_active
37 | 4.2 | 1100 | 2.6 | Cc1sc2ncn(CC(=O)N3CC(C)(F)C3)c(=O)c2c1-c1cccc(OC(F)(F)F)c1 | –
38 | – | 21000 | – | Cc1sc2ncn(CC(=O)N3CCC[C@@H]3C)c(=O)c2c1-c1cccc(Br)c1 | –
39 | 11 | 2800 | 5.3 | Cc1sc2ncn(CC(=O)N3CC(C)(C)C3)c(=O)c2c1-c1cccc(Br)c1 | –
40 | 6.3 | 2000 | 3 | Cc1sc2ncn(CC(=O)N3CC(C)(F)C3)c(=O)c2c1-c1ccc2ccccc2c1 | –
41 | – | 10000 | – | Cc1sc2ncn(CC(=O)N3CC(C)(F)C3)c(=O)c2c1-c1ccc2ccn(C)c2c1 | –
